From ChEMBL document CHEMBL5385931, “Microascones, Decahydrofluorene-Class Alkaloids from the Marine-Derived Fungus Microascus sp. SCSIO 41821” (J Nat Prod, 2024)
pIC50: −log10 of the molar value. ≈ marks a conversion by molar mass, not a printed value.

How the values were obtained:
[1] = target: Dual specificity protein phosphatase 3 (Homo sapiens, UniProt P51452); assay: Inhibition of human VHR
[2] = test system: Dickeya chrysanthemi; assay: Antibacterial activity against Dickeya chrysanthemi SC41999 assessed as bacterial growth inhibition by broth microdilution method; type: functional
[3] = test system: Staphylococcus aureus; assay: Antibacterial activity against methicillin-resistant Staphylococcus aureus SC41993 assessed as bacterial growth inhibition by broth microdilution method; type: functional
[4] = test system: Streptococcus agalactiae; assay: Antibacterial activity against Streptococcus agalactiae ATCC 13813 assessed as bacterial growth inhibition by broth microdilution method; type: functional
[5] = test system: Micrococcus luteus; assay: Antibacterial activity against Micrococcus luteus SC41991 assessed as bacterial growth inhibition by broth microdilution method; type: functional
[6] = target: T1, Tyrosine-protein phosphatase non-receptor type 1 (Homo sapiens, UniProt P18031); assay: Inhibition of human PTP1B
T1 sequence (P18031 whole entry): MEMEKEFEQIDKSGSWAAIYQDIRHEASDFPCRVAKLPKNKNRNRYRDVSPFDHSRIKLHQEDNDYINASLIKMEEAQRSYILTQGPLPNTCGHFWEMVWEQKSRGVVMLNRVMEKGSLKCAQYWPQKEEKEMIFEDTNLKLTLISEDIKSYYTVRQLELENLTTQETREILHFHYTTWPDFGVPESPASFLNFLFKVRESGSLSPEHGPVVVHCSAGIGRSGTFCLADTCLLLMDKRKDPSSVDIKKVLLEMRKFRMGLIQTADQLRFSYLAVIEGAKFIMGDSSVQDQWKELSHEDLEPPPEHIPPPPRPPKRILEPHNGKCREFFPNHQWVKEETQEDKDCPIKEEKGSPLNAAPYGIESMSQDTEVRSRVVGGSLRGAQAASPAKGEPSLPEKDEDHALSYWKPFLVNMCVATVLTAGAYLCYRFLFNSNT

[7] = target: Receptor-type tyrosine-protein phosphatase F (Homo sapiens, UniProt P10586); assay: Inhibition of human LAR
[8] = test system: Staphylococcus aureus; assay: Antibacterial activity against Staphylococcus aureus ATCC 6538 assessed as bacterial growth inhibition by broth microdilution method; type: functional
[9] = test system: Candida albicans; assay: Antifungal activity against Candida albicans assessed as fungal growth inhibition; type: functional
[10] = test system: Bacillus subtilis; assay: Antibacterial activity against Bacillus subtilis BS01 assessed as bacterial growth inhibition by broth microdilution method; type: functional
[11] = test system: Bacillus amyloliquefaciens; assay: Antibacterial activity against Bacillus amyloliquefaciens GDMCC 60233 assessed as bacterial growth inhibition by broth microdilution method; type: functional
[12] = test system: Pseudomonas aeruginosa; assay: Antibacterial activity against Pseudomonas aeruginosa ATCC 9027 assessed as bacterial growth inhibition by broth microdilution method; type: functional
[13] = test system: Paracidovorax citrulli; assay: Antibacterial activity against Acidovorax citrulli SC42000 assessed as bacterial growth inhibition by broth microdilution method; type: functional
[14] = test system: Escherichia coli; assay: Antibacterial activity against Escherichia coli ATCC 25922 assessed as bacterial growth inhibition by broth microdilution method; type: functional
[15] = target: T2, M-phase inducer phosphatase 2 (Homo sapiens, UniProt P30305); assay: Inhibition of human CDC25B
T2 sequence (P30305 whole entry): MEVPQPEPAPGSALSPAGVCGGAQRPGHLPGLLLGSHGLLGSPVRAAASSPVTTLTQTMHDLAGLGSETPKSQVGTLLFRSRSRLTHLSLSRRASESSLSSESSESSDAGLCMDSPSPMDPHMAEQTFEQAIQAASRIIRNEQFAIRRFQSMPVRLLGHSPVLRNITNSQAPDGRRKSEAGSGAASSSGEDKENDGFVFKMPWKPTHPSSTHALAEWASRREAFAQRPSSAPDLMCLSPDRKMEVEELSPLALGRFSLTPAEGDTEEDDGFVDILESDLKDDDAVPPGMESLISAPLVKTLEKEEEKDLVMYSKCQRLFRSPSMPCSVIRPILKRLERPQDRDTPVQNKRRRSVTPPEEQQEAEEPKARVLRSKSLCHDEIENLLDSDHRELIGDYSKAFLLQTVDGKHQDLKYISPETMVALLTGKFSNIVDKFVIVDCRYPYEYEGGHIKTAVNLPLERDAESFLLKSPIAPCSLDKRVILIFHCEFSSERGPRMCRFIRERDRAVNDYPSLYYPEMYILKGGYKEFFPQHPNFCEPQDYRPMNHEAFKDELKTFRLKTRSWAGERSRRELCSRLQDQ

[16] = test system: Streptococcus iniae; assay: Antibacterial activity against Streptococcus iniae SC41992 assessed as bacterial growth inhibition by broth microdilution method; type: functional
[17] = test system: HepG2; assay: Cytotoxicity against human HepG2 cells assessed as cell growth inhibition by CCK8 assay
[18] = test system: NCI-H1975; assay: Cytotoxicity against human NCI-H1975 cells assessed as cell growth inhibition by CCK8 assay

Sequence of Receptor-type tyrosine-protein phosphatase F (P10586 whole entry): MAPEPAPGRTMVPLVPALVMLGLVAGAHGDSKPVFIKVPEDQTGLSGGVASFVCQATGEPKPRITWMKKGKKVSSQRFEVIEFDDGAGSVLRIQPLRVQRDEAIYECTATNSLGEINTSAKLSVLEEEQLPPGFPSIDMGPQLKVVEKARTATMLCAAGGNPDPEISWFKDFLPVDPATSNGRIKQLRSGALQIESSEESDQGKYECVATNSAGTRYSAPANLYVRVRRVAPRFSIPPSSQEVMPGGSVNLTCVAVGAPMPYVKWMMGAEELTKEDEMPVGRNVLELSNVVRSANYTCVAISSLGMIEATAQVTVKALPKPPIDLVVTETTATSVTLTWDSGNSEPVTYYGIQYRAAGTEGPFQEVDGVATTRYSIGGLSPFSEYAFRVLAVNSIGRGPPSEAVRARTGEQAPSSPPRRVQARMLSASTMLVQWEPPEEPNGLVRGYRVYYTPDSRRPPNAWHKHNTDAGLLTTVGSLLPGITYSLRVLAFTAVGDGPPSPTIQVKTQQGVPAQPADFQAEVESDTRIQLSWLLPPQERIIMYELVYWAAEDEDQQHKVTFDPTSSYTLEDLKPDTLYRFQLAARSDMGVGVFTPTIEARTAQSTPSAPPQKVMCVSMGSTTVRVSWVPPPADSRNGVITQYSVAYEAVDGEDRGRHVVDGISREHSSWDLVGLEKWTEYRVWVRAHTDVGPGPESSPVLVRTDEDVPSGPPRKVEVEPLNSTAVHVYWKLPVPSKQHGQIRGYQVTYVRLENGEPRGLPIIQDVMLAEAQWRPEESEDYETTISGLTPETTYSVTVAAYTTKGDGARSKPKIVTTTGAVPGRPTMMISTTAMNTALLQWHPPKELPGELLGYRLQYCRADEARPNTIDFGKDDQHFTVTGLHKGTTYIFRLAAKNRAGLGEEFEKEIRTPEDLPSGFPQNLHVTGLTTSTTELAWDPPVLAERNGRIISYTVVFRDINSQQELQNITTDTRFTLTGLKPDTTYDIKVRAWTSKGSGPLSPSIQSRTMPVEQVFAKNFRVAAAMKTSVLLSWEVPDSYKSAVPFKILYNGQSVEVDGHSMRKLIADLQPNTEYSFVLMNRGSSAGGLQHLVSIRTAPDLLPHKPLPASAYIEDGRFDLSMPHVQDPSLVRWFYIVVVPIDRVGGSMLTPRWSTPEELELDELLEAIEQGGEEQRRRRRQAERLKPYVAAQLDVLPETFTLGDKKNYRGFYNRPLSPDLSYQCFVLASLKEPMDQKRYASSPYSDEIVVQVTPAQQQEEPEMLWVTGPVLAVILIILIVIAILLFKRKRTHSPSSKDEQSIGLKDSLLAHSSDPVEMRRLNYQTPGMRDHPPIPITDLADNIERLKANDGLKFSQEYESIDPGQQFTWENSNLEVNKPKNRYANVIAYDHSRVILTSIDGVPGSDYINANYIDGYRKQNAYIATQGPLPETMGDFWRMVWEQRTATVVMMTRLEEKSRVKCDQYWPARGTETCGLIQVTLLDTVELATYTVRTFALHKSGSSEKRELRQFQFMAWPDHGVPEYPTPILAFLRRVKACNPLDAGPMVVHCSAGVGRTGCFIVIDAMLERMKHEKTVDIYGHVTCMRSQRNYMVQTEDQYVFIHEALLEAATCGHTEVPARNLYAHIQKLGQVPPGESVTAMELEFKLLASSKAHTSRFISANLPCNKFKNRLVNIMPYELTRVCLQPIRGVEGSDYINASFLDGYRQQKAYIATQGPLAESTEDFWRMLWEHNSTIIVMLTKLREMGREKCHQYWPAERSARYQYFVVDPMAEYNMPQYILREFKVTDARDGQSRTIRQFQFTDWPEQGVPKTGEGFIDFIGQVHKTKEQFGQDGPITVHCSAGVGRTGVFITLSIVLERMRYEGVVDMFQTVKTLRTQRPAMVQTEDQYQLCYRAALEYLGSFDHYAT
Sequence of Dual specificity protein phosphatase 3 (P51452 whole entry): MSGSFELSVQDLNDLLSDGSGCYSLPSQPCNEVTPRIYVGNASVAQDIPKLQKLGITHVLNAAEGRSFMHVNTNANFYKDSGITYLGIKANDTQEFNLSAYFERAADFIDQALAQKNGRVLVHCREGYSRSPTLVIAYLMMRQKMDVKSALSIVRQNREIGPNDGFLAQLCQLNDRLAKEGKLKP

Molecule	pIC50 [1]	MIC [2] [µg/mL]	MIC [3] [µg/mL]	MIC [4] [µg/mL]	MIC [5] [µg/mL]	pIC50 [6]	pIC50 [7]	MIC [8] [µg/mL]	MIC [9] [µg/mL]	MIC [10] [µg/mL]	MIC [11] [µg/mL]	MIC [12] [µg/mL]	MIC [13] [µg/mL]	MIC [14] [µg/mL]	pIC50 [15]	MIC [16] [µg/mL]	pIC50 [17]	pIC50 [18]
CC1=C[C@@]2(C)C(=C(C)[C@H]3[C@@H]4C[C@H](C)C[C@H](C)[C@H]4[C@H]4Oc5ccc(cc5)C[C@]5(O)NC(=O)[C@]6(O[C@H]65)C(=O)[C@H]2[C@@H]43)[C@H]1C	< 3.70	> 100	25 (≈ 46 µM)	50 (≈ 92 µM)	50 (≈ 92 µM)	5.06	< 3.70	100 (≈ 184 µM)	> 100	50 (≈ 92 µM)	100 (≈ 184 µM)	> 100	> 100	50 (≈ 92 µM)	5.22	25 (≈ 46 µM)	–	–
CC1=C[C@@]2(C)C(=C(C)[C@H]3[C@@H]4C[C@H](C)C[C@H](C)[C@H]4[C@H]4Oc5ccc(cc5)C[C@@H]5C(=O)NC(=O)[C@H]5C(=O)[C@H]2[C@@H]43)[C@H]1C	< 3.70	> 100	13 (≈ 24.6 µM)	25 (≈ 47.4 µM)	25 (≈ 47.4 µM)	4.96	< 3.70	50 (≈ 94.7 µM)	> 100	13 (≈ 24.6 µM)	100 (≈ 189 µM)	> 100	> 100	25 (≈ 47.4 µM)	< 3.70	12.5 (≈ 23.7 µM)	–	–
CN[C@H](CC(C)C)C(=O)N[C@H]1C(=O)N[C@@H](CC(N)=O)C(=O)N[C@H]2C(=O)N[C@H]3C(=O)N[C@H](C(=O)N[C@H](C(=O)O)c4cc(O)cc(O)c4-c4cc3ccc4O)[C@H](O)c3ccc(c(Cl)c3)Oc3cc2cc(c3O[C@@H]2O[C@H](CO)[C@@H](O)[C@H](O)[C@H]2O[C@H]2C[C@](C)(N)[C@H](O)[C@H](C)O2)Oc2ccc(cc2Cl)[C@H]1O [VANCOMYCIN]	–	0.1 (≈ 0.069 µM)	2.5 (≈ 1.73 µM)	2.5 (≈ 1.73 µM)	1.25 (≈ 0.863 µM)	–	–	2.5 (≈ 1.73 µM)	–	0.31 (≈ 0.214 µM)	0.31 (≈ 0.214 µM)	–	0.1 (≈ 0.069 µM)	0.31 (≈ 0.214 µM)	–	1.25 (≈ 0.863 µM)	–	–
CO[C@@H]1/C2=C(\O)[C@H]3[C@H]4[C@H](Oc5ccc(cc5)C[C@]1(O)NC2=O)[C@H]1[C@@H](C[C@H](C)C[C@@H]1C)[C@@H]4C(C)=C1[C@@H](C)C(C)=C[C@@]13C	–	> 100	0.2 (≈ 0.357 µM)	0.2 (≈ 0.357 µM)	1.6 (≈ 2.86 µM)	–	–	0.4 (≈ 0.715 µM)	13 (≈ 23.2 µM)	0.2 (≈ 0.357 µM)	0.2 (≈ 0.357 µM)	> 100	> 100	0.1 (≈ 0.179 µM)	–	0.4 (≈ 0.715 µM)	–	–
C=C/C(C)=C/[C@]1(C)C=C(C)[C@H]2[C@@H]3C[C@H](C)C[C@H](C)[C@H]3[C@H]3Oc4ccc(cc4)C[C@@H]4C(=O)NC(=O)[C@H]4C(=O)[C@@H]1[C@@H]32	–	–	> 100	50 (≈ 94.7 µM)	–	–	–	> 100	–	100 (≈ 189 µM)	–	–	–	100 (≈ 189 µM)	–	–	< 4.10	4.17
CC1=C[C@@]2(C)[C@@H]3C(=O)[C@@]45C(=O)N[C@@](O)(Cc6ccc(cc6)O[C@@H]6[C@H]7[C@@H](C[C@H](C)C[C@@H]7C)[C@H]1[C@H]63)[C@H]4CC=C(C)[C@@H]25	–	–	> 100	100 (≈ 189 µM)	–	–	–	> 100	–	100 (≈ 189 µM)	100 (≈ 189 µM)	–	–	100 (≈ 189 µM)	–	100 (≈ 189 µM)	–	–
CC1=C2[C@@H](C)[C@@]3(C)O[C@H]3[C@]2(C)[C@H]2C(=O)[C@]34O[C@H]3[C@](O)(Cc3ccc(cc3)O[C@@H]3[C@H]5[C@@H](C[C@H](C)C[C@@H]5C)[C@H]1[C@H]32)NC4=O	< 3.70	–	> 100	100 (≈ 179 µM)	–	4.38	< 3.70	13 (≈ 23.2 µM)	–	100 (≈ 179 µM)	100 (≈ 179 µM)	–	–	100 (≈ 179 µM)	< 3.70	100 (≈ 179 µM)	4.17	4.48
GENTAMICIN SULFATE	–	0.1	0.62	0.62	–	–	–	1.3	–	0.62	0.62	–	0.1	0.62	–	1.3	–	–
